# Patent US9820990B2, “Methods of treating disorders associated with protein aggregation” (University of Pittsburgh—Of the Commonwealth System of …, priority 2009, dated 2017)
# Where a name gives a salt, the structure may show the parent alone. Read-outs that look alike come from different tables or passages of the source.
# System: sGFP::ATZ
# Experiment: LOPAC library high-content primary screen for sGFP::ATZ accumulation in transgenic animals
# Assay type: in vivo, C. elegans
# Settings: for Rank-score: 24 h
# [1] = among compounds that decreased ATZ accumulation, based on relative rank-scores
# [2] = average of compound rankings by ascending B-score from two independent screens, 50 μM, <110 decreased, >1225 increased sGFP::ATZ inclusions
# [3] = among compounds that increased ATZ accumulation, based on relative rank-scores
smiles,measurement,setting,value
NCCc1c[nH]c2ccc(C(N)=O)cc12.O=C(O)/C=C\C(=O)O [5-carboxamidotryptamine maleate],Overall rank-order,[1],29
same,Rank-score,[2],95.5
N#CC(C#N)=C(N)/C(C#N)=C/c1ccc(O)cc1 [tyrphostin AG 112],Overall rank-order,[1],30
same,Rank-score,[2],98.0
O=C1Nc2ccccc2/C1=C1/Nc2ccccc2/C1=N\O [indirubin-3′-oxime],Overall rank-order,[1],25
same,Rank-score,[2],85.0
CN[C@@H]1C[C@@H](c2ccc(Cl)c(Cl)c2)c2ccccc21 [indatraline hydrochloride],Overall rank-order,[1],28
same,Rank-score,[2],93.0
Cl.N[C@@H](CCl)C(=O)O [beta-chloro-L-alanine hydrochloride],Overall rank-order,[1],16
same,Rank-score,[2],61.5
Cc1nc(-c2ccc(-c3ccc(C(=O)N4CCc5cc6c(cc54)C4(CCN(C)CC4)CO6)cc3)c(C)c2)no1 [SB 224289 hydrochloride],Overall rank-order,[3],3
same,Rank-score,[2],1255.0
"Cc1c(CC(C)(C)C(=O)O)n(Cc2ccc(Cl)cc2)c2ccc(F)cc12 [L-655,240]",Overall rank-order,[1],3
same,Rank-score,[2],10.5
COc1cccc(C(=O)NCCN2CCN(c3ccc(Cl)cc3)CC2)c1 [N-(2-[4-(4-Chlorophenyl)piperazin-1-yl]ethyl)-3-methoxybenzamide],Overall rank-order,[1],8
same,Rank-score,[2],41.5
Clc1ccccc1C(c1ccccc1)(c1ccccc1)n1ccnc1 [clotrimazole],Overall rank-order,,4
same,Rank-score,50 µM,1255.0
"C[N+]1(C)CCc2cc3c(cc2[C@H]1[C@@H]1OC(=O)c2c1ccc1c2OCO1)OCO3.[Br-] [(−)-bicuculline methbromide, 1(S), 9(R)]",Overall rank-order,[1],26
same,Rank-score,[2],89.5
NCc1cc(=O)[nH]o1 [muscimol hydrobromide],Overall rank-order,[1],5
same,Rank-score,[2],28.0
"CCCCOC(=O)NS(=O)(=O)c1sc(CC(C)C)cc1-c1ccc(Cn2c(CC)nc3c(C)cc(C)nc32)cc1 [L-162,313]",Overall rank-order,[3],9
same,Rank-score,[2],1238.0
CC(C)C[C@H]1C(=O)N2CCC[C@H]2[C@]2(O)O[C@](NC(=O)[C@@H]3C=C4c5cccc6[nH]c(Br)c(c56)C[C@H]4N(C)C3)(C(C)C)C(=O)N12.CS(=O)(=O)O [(+)-bromocriptine methanesulfonate],Overall rank-order,[3],8
same,Rank-score,[2],1240.5
CN1CCN(CCCN2c3ccccc3Sc3ccc(Cl)cc32)CC1 [prochlorperazine dimaleate],Overall rank-order,[1],31
same,Rank-score,[2],103.5
CCCC(=O)NCCc1c2n(c3ccc(OC)cc13)Cc1ccccc1-2 [IIK7],Overall rank-order,[3],11
same,Rank-score,[2],1236.5
CC1=C(C(=O)O)N2C(=O)[C@@H](NC(=O)[C@H](N)C3=CCC=CC3)[C@H]2SC1 [cephradine],Overall rank-order,[1],27
same,Rank-score,[2],90.0
Cl.Cl.OCCN1CCN(CC/C=C2/c3ccccc3Sc3ccc(C(F)(F)F)cc32)CC1 [cis-(Z)-flupenthixol dihydrochloride],Overall rank-order,[1],20
same,Rank-score,[2],74.0
CCN(CC)C(C)C(=O)N1c2ccccc2Sc2ccccc21.Cl (stereo not drawn) [10-(alpha-diethylaminopropionyl)-phenothiazine hydrochloride],Overall rank-order,[1],21
same,Rank-score,[2],75.5
C[C@](N)(Cc1ccc(O)c(O)c1)C(=O)O [L-alpha-methyl DOPA],Overall rank-order,[1],18
same,Rank-score,[2],72.5
O=S(=O)(c1cccc2cnccc12)N1CCNCC1 [HA-100],Overall rank-order,[1],10
same,Rank-score,[2],52.5
COc1cc(OC)c(C=C2C(O)=Nc3ccccc32)c(OC)c1 [IC 261],Overall rank-order,[3],5
same,Rank-score,[2],1253.5
"C#C[C@]1(O)CC[C@H]2[C@@H]3CCC4=Cc5nc6nc7ccccc7n6cc5C[C@]4(C)[C@H]3CC[C@@]21C [WIN 62,577]",Overall rank-order,[3],12
same,Rank-score,[2],1233.5
Cn1ccc2cc3c(cc21)CCN3C(=O)Nc1cccnc1 [SB 206553 hydrochloride],Overall rank-order,[1],11
same,Rank-score,[2],56.0
"CS(=O)(=O)O.Cc1c(C(=O)c2cccc3ccccc23)c2cccc3c2n1[C@H](CN1CCOCC1)CO3 [(R)-(+)-WIN 55,212-2 mesylate]",Overall rank-order,[3],14
same,Rank-score,[2],1231.0
CN(C)c1cc2c(Nc3ccc4c(cnn4Cc4ccccc4)c3)ncnc2cn1 [GW2974],Overall rank-order,[3],1
same,Rank-score,[2],1263.0
COc1ccc(C2CNC(=O)C2)cc1OC1CCCC1 (stereo not shown) [rolipram],Overall rank-order,[1],14
same,Rank-score,[2],58.0
"O=c1[nH]c2cc(Cl)ccc2c(O)c1-c1cccc(Oc2ccccc2)c1 [L-701,324]",Overall rank-order,[1],12
same,Rank-score,[2],57.5
COc1[nH]c2ccc(F)cc2c1C(=O)OCC1CCN(CCNS(C)(=O)=O)CC1.NS(=O)(=O)O [GR 125487 sulfamate salt],Overall rank-order,[1],4
same,Rank-score,[2],24.0
CCCN(CCC)[C@H]1CCc2c(F)ccc(O)c2C1.Cl [S(−)-UH-301 hydrochloride],Overall rank-order,[1],17
same,Rank-score,[2],65.0
